Test results reported in US8227431B2, “Nucleoside derivatives” (Hetero Drugs Limited, priority 2008, dated 2012).
pIC50: −log10 of the molar value.

How the values were obtained:
[1] = Cell viability assay (MTT); assay type: cell-based; conditions: human, Supt-1 cells, Cell line Supt-1, about 14 hours incubation, read-out: Cytotoxicity concentration (CC50)
Description: Reduction of 3-(4,5-dimethylthiozol-2-yl)-2,5-diphenyltetrazolium bromide (MTT, sigma) is chosen as an optimal mend point of cell viability measurement (Mosmann, 1983; Cole, 1986; alley et al., 1988). Cells (0.2×10^6 cells per well) were seeded in 96-well plates. Increasing concentrations of compound were added to the cells and incubated at 37° C. for about 14 hours in a CO2 Incubator with 5% CO2. The media was replaced with a fresh growth medium along with 20 μL of 5 mg/ml 3-(4,5-dimethylthiazol-2-yl)-2,5-diphenyltetrazolium bromide (MTT, Sigma). After incubation for about 4 hours in a humidified atmosphere, the media was removed and 200 μL of 0.1N acidic isopropyl alcohol was added to the wells to dissolve the MTT-formazan crystals. The absorbance was recorded at 570 nm, immediately after the development of purple colour. Each experiment was conducted in triplicate and the data are represented as average, with standard deviation. Percent viability of the cells was computed with reference to the absorbance of reduced MTT in the experiments conducted in absence of any compound. The above described examples were tested in the two biological assays as described above and some compounds were found following results as shown in table 2. Cell line Supt-1; Virus: HIV-1-93IN101

HIV-1-93IN101 = assay: P24 assay (viral p24 ELISA); assay type: cell-based; conditions: Cell line Supt-1, Virus HIV-1-93IN101; for pIC50: Human immunodeficiency virus 1, SUP-T1, p24 ELISA about 72 hours post infection, read-out: Inhibitory concentration 50 (IC50)
Description: Viral p24 was measured after about 72 hours of post infection in presence of drugs using ABL p24 ELISA kit. 0.5 millions cells/well were taken into the 24 well plates and added increasing concentrations of drugs. 1 ng/ml of HIV-1 virus was added to each well and incubated for overnight at 37° C. (37° C. and 5% CO2). After about 16 hours incubation media was changed and added fresh media and cultured for about 72 hours. P24 was quantified at 4th day of post-infection using ABL kit according to manufacturer's instructions. The above described examples were tested in the two biological assays as described above and some compounds were found following results as shown in table 2. Cell line Supt-1; Virus: HIV-1-93IN101

Structure (SMILES)	CC50 [1] [mM]	Therapeutic Index (TI): CC50/IC50 (HIV-1-93IN101)	pIC50 (HIV-1-93IN101)
C[C@]1(F)C(n2cnc3c(N)ncnc32)O[C@H](CO)[C@]1(C)O (stereo partly drawn) [Example 2A, (2R,3S,4R)-5-(6-amino-9H-purin-9-yl)-4-fluoro-tetrahydro-2-(hydroxymethyl)-3,4-dimethylfuran-3-ol]	> 1	>1	< 3.00
C[C@]1(F)[C@H](n2ccc(N)nc2=O)O[C@H](CO)[C@@]1(C)O [Example 23, 4-amino1-((2R,4R)-3-fluoro-tetrahydro-4-hydroxy-5-(hydroxymethyl)-3,4-dimethylfuran-2-yl)pyrimidin-2(1H)-one]	> 1	>1	< 3.00
C[C@]1(F)[C@H](n2ccc(=O)[nH]c2=O)O[C@H](CO)[C@@]1(C)O [Example 22, 1-((2R,4R)-3-fluoro-tetrahydro-4-hydroxy-5-(hydroxymethyl)-3,4-dimethylfuran-2-yl)pyrimidine-2,4(1H,3H)-dione]	> 1	>1	< 3.00
CC1(O)[C@@H](CO)OC(n2cnc3c(NC4CC4)ncnc32)[C@]1(C)F (stereo partly drawn) [Example 16, (2R,4R)-5-(6-(cyclopropylamino)-9H-purin-9yl)-4-fluoro-tetrahydro-2-(hydroxymethyl)-3,4-dimethylfuran-3-ol]	0.424	1.4	3.52
